Here are results for three molecules from US20220281848A1, “PYRAZOLE-SUBSTITUTED PYRROLIDINONES AS HERBICIDES” (FMC Corporation, priority 2019, published 2022).

Holding throughout (format): in vivo
Assay [1] relates to ivy-leaved morning glory (Ipomoea hederacea, IPOHE). Put plainly: Test A post-emergence, ivy-leaved morning glory. The following applies: after 13 d. A digest of the protocol: (§1)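 Visual damage rating (0 no damage to 100 total damage) was made 13 d after spraying. The spray was 15.625, 62.5 or 250 g/ha in 50:50 acetone/water with 0.5% Tween 20, applied to 8-day-old glasshouse plants kept at 24/16° C, 14 h light and 65% humidity.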

Assay [2] shares this test system. The experiment in a line: Test A pre-emergence, ivy-leaved morning glory. The settings on record: after 13 d. In outline: (§2)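 Values are percent plant damage 13 d after a pre-emergence spray (15.625, 62.5 or 250 g/ha; acetone/water with 0.5% Tween 20) applied to pots one day post-sowing, under glasshouse conditions of 24/16° C. and twice-daily watering.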
Assay [3] relates to barnyardgrass (Echinochloa crus-galli, ECHCG). Put plainly: Test A post-emergence, barnyardgrass. The settings on record: after 13 d. A digest of the protocol: as §1
The test system of another assay is wheat. The experiment in a line: Test D post-emergence, wheat seed treated with a herbicide safener. The settings on record: "Cereals" Postemergent. The protocol: (§3) A formulation containing 50 g/L of the test chemical was prepared by dissolving the active ingredient in a mixture of organic solvents and emulsifier, details of which are provided in the table. This formulation was then mixed with a small, variable amount of acetone to aid dissolution, before addition of a 0.2% v/v aqueous solution of an adjuvant, as the aqueous diluent, to form an aqueous spray solution which contains a predetermined concentration of the active ingredient.
(§4) This aqueous spray solution was then sprayed onto plants including maize and wheat that had been seed treated with a herbicide safener, after one day's cultivation (for pre-emergence) or after about 12 days' cultivation (for post-emergence). The plants were grown from seeds sown in standard soil, placed in a glasshouse under controlled conditions (at 24/18° C. or 20/16° C., day/night; 16 h light; 65% humidity). After spray application the plants were then grown in a glasshouse under the same conditions and watered twice daily. After 15 d for post-emergence and 20 DAA for pre-emergence the test was evaluated (100=total damage to plant; 0=no damage to plant).

Another assay relates to corn (Zea mays, ZEAMX). Put plainly: Test A pre-emergence, corn. The following applies: after 13 d. In outline: as §2
For assay [4], the system named is barnyardgrass (Echinochloa crus-galli, ECHCG). Put plainly: Test A pre-emergence, barnyardgrass. The following applies: after 13 d. A digest of the protocol:
as §2

Another assay deals with maize. Put plainly: Test D post-emergence, maize seed treated with a herbicide safener. The protocol: as §3, §4
Setting [5] is: Rates 130, evaluated after 15 d.
[6] abbreviates: Rates 250, evaluated after 15 d.
Setting [7] is: Rates 500, evaluated after 15 d.

For the molecule `CN1CC(c2cc(C(F)(F)F)n(C)n2)C(C(=O)Nc2ccc(F)nc2F)C1=O` (racemic) [Compound 22], the “damage to plant (100=total damage; 0=no damage) IPOHE” value in assay [1] (Post-Emergence at 15.625 g/ha) amounted to 0; in assay [1] (Post-Emergence at 62.5 g/ha), 10; in assay [1] (Post-Emergence at 250 g/ha) it was 30; in assay [2] (Pre-Emergence at 15.625 g/ha) it was 0; in assay [2] (Pre-Emergence at 62.5 g/ha) it was 0; in assay [2] (Pre-Emergence at 250 g/ha), 0. Moreover, the “damage to plant (100=total damage; 0=no damage) ECHCG” value in assay [3] (Post-Emergence at 15.625 g/ha) is recorded as 60; in assay [3] (Post-Emergence at 62.5 g/ha), 70; in assay [3] (Post-Emergence at 250 g/ha), 80; in assay [4] (Pre-Emergence at 15.625 g/ha), 70; in assay [4] (Pre-Emergence at 62.5 g/ha) it was 90; in assay [4] (Pre-Emergence at 250 g/ha), 90. The “TRZAW damage rating (100=total damage to plant; 0=no damage to plant)” value in the assay with wheat (setting [5]) came to 0; in the assay with wheat (setting [6]) it was 0; with wheat (setting [7]), 10. For the same molecule, the “damage to plant (100=total damage; 0=no damage) ZEAMX” value was determined as 0 in the assay with corn (Zea mays, ZEAMX) (Pre-Emergence at 15.625 g/ha); 20 with corn (Zea mays, ZEAMX) (Pre-Emergence at 62.5 g/ha); 40 in the assay with corn (Zea mays, ZEAMX) (Pre-Emergence at 250 g/ha). Besides, the “damage to plant (100=total damage to plant; 0=no damage to plant), ZEAMX” value in the assay with maize (rate 130, evaluated after 15 d) amounted to 0; in the assay with maize (rate 250, evaluated after 15 d) it was 0; with maize (rate 500, evaluated after 15 d), 20.

As to `CN1CC(c2cc(C(F)(F)F)n(C)n2)C(C(=O)Nc2cccc(F)c2C(F)(F)F)C1=O` (racemic) [Compound 19], the “damage to plant (100=total damage; 0=no damage) IPOHE” value in assay [1] (Post-Emergence at 15.625 g/ha) stood at 0; in assay [1] (Post-Emergence at 62.5 g/ha), 0; in assay [1] (Post-Emergence at 250 g/ha), 0; in assay [2] (Pre-Emergence at 15.625 g/ha), 0; in assay [2] (Pre-Emergence at 62.5 g/ha), 0; in assay [2] (Pre-Emergence at 250 g/ha), 10. For the same molecule, the “damage to plant (100=total damage; 0=no damage) ECHCG” value stood at 60 in assay [3] (Post-Emergence at 15.625 g/ha); 70 in assay [3] (Post-Emergence at 62.5 g/ha); 80 in assay [3] (Post-Emergence at 250 g/ha); 70 in assay [4] (Pre-Emergence at 15.625 g/ha); 90 in assay [4] (Pre-Emergence at 62.5 g/ha); 90 in assay [4] (Pre-Emergence at 250 g/ha). Moreover, the results for the “TRZAW damage rating (100=total damage to plant; 0=no damage to plant)” value in the assay on wheat (setting [5]), in the assay with wheat (setting [6]) and in the assay with wheat (setting [7]) were 0, 0 and 20, respectively. In addition, the “damage to plant (100=total damage; 0=no damage) ZEAMX” value in the assay on corn (Zea mays, ZEAMX) (Pre-Emergence at 15.625 g/ha) was found to be 0; in the assay on corn (Zea mays, ZEAMX) (Pre-Emergence at 62.5 g/ha) it was 0; with corn (Zea mays, ZEAMX) (Pre-Emergence at 250 g/ha), 20. Moreover, the “damage to plant (100=total damage to plant; 0=no damage to plant), ZEAMX” value in the assay on maize (rate 130, evaluated after 15 d) was 0; in the assay with maize (rate 250, evaluated after 15 d), 0; in the assay with maize (rate 500, evaluated after 15 d), 30.

As to `CN1CC(c2cc(C(F)(F)F)n(C)n2)C(C(=O)Nc2cccc(F)n2)C1=O` (racemic) [Compound 24], the “damage to plant (100=total damage; 0=no damage) IPOHE” value in assay [1] (Post-Emergence at 15.625 g/ha) was determined as 10; in assay [1] (Post-Emergence at 62.5 g/ha) it was 20; in assay [1] (Post-Emergence at 250 g/ha), 50; in assay [2] (Pre-Emergence at 15.625 g/ha), 0; in assay [2] (Pre-Emergence at 62.5 g/ha), 0; in assay [2] (Pre-Emergence at 250 g/ha), 40. The “damage to plant (100=total damage; 0=no damage) ECHCG” value in assay [3] (Post-Emergence at 15.625 g/ha) is 40; in assay [3] (Post-Emergence at 62.5 g/ha), 80; in assay [3] (Post-Emergence at 250 g/ha) it was 80; in assay [4] (Pre-Emergence at 15.625 g/ha) it was 90; in assay [4] (Pre-Emergence at 62.5 g/ha) it was 100; in assay [4] (Pre-Emergence at 250 g/ha), 100. Moreover, the “TRZAW damage rating (100=total damage to plant; 0=no damage to plant)” value in the assay on wheat (setting [5]), with wheat (setting [6]) and in the assay with wheat (setting [7]) was 0 in each case. In addition, the “damage to plant (100=total damage; 0=no damage) ZEAMX” value in the assay on corn (Zea mays, ZEAMX) (Pre-Emergence at 15.625 g/ha) came to 0; in the assay on corn (Zea mays, ZEAMX) (Pre-Emergence at 62.5 g/ha), 30; in the assay on corn (Zea mays, ZEAMX) (Pre-Emergence at 250 g/ha) it was 80. The “damage to plant (100=total damage to plant; 0=no damage to plant), ZEAMX” value turned out to be 0 with maize (rate 130, evaluated after 15 d); 0 with maize (rate 250, evaluated after 15 d); 20 in the assay on maize (rate 500, evaluated after 15 d).
